Measurements: ChEMBL document CHEMBL5212743, “Selectivity Literature for EUbOPEN Chemogenomics Library wave 3” (2023)
Each block holds one compound with its values, some of them ahead of it.

Legend:
[1] = target: Dual specificity tyrosine-phosphorylation-regulated kinase 1B (Homo sapiens, UniProt Q9Y463); test: Selectivity interaction (KinomeScan (DiscoverX)) EUB0000321b DYRK1B; settings: at 100 nM
[2] = target: Dual specificity tyrosine-phosphorylation-regulated kinase 1A (Homo sapiens, UniProt Q13627); test: Selectivity interaction (KinomeScan (DiscoverX)) EUB0000321b DYRK1A; settings: at 100 nM
[3] = target: Mitogen-activated protein kinase kinase kinase 5 (Homo sapiens) (UniProt Q99683); test: Selectivity interaction (KinomeScan (DiscoverX)) EUB0000321b MAP3K5; settings: at 100 nM
[4] = target: Mitogen-activated protein kinase kinase kinase 5 (Homo sapiens, UniProt Q99683); test: Selectivity interaction (NanoBRET assay (HEK293T cells)) EUB0000321b MAP3K5
[5] = target: T1, Dual specificity mitogen-activated protein kinase kinase 5 (Homo sapiens) (UniProt Q13163); test: Selectivity interaction (KinomeScan (DiscoverX)) EUB0000321b MAP2K5; settings: at 100 nM
T1 sequence (whole entry): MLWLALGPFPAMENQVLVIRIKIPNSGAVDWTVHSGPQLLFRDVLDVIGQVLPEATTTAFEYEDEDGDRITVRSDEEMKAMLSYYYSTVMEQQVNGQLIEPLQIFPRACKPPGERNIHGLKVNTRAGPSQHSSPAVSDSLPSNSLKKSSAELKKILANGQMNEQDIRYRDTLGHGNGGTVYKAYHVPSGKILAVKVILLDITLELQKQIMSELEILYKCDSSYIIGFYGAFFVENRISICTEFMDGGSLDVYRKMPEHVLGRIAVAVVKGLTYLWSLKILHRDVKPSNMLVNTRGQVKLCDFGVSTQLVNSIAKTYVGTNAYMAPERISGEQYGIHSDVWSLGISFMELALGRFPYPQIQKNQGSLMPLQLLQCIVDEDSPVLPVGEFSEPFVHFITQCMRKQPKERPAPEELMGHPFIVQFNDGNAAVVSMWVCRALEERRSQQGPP

[6] = target: T2, Dual specificity mitogen-activated protein kinase kinase 5 (Homo sapiens, UniProt Q13163); test: Selectivity interaction (NanoBRET assay (HEK293T cells)) EUB0000321b MAP2K5
T2 sequence (Q13163 whole entry): T1 sequence (whole entry)

[7] = target: Receptor-type tyrosine-protein kinase FLT3 (Homo sapiens, UniProt P36888); test: (§1) Selectivity interaction (NanoBRET assay (HEK293T cells)) EUB0000321b FLT3
[8] = target: Receptor-type tyrosine-protein kinase FLT3 (Homo sapiens, UniProt P36888, D835V); test: as §1
[9] = target: T3, Mast/stem cell growth factor receptor Kit (Homo sapiens, UniProt P10721); test: Selectivity interaction (KinomeScan (DiscoverX)) EUB0000321b KIT; settings: at 100 nM
[10] = target: T3, Mast/stem cell growth factor receptor Kit; test: Selectivity interaction (NanoBRET assay (HEK293T cells)) EUB0000321b KIT
[11] = target: T4, Platelet-derived growth factor receptor alpha (Homo sapiens, UniProt P16234); test: Selectivity interaction (KinomeScan (DiscoverX)) EUB0000321b PDGFRA; settings: at 100 nM
[12] = target: T4, Platelet-derived growth factor receptor alpha; test: Selectivity interaction (NanoBRET assay (HEK293T cells)) EUB0000321b PDGFRA
[13] = target: T5, Platelet-derived growth factor receptor beta (Homo sapiens, UniProt P09619); test: Selectivity interaction (NanoBRET assay (HEK293T cells)) EUB0000321b PDGFRB
[14] = target: T5, Platelet-derived growth factor receptor beta; test: Selectivity interaction (KinomeScan (DiscoverX)) EUB0000321b PDGFRB; settings: at 100 nM
Mu-type opioid receptor = Mu-type opioid receptor (Homo sapiens, UniProt P35372); test: Selectivity interaction (GPCR panel (PDSP screen)) EUB0000712a OPRM1; settings: at 10 µM
[15] = target: T6, Serine/threonine-protein kinase Chk2 (Homo sapiens, UniProt O96017); test: Selectivity interaction (KinomeScan (DiscoverX)) EUB0000712a CHEK2; settings: at 1 µM
[16] = target: T6, Serine/threonine-protein kinase Chk2; test: Selectivity interaction (NanoBRET assay (HEK293T cells)) EUB0000712a CHEK2
[17] = target: Serine/threonine-protein kinase B-raf (Homo sapiens, UniProt P15056); test: Selectivity interaction (NanoBRET assay (HEK293T cells)) EUB0000712a BRAF
[18] = target: Receptor-interacting serine/threonine-protein kinase 2 (Homo sapiens) (UniProt O43353); test: Selectivity interaction (KinomeScan (DiscoverX)) EUB0000712a RIPK2; settings: at 1 µM
[19] = target: Phosphatidylinositol 4,5-bisphosphate 3-kinase catalytic subunit alpha isoform (Homo sapiens, UniProt P42336); test: Selectivity interaction (KinomeScan (DiscoverX)) EUB0000712a PIK3CA; settings: at 1 µM
[20] = target: T7, Serine/threonine-protein kinase 38-like (Homo sapiens, UniProt Q9Y2H1); test: Selectivity interaction (KinomeScan (DiscoverX)) EUB0000712a STK38L; settings: at 1 µM
Target sequence in this assay (Q9Y2H1 2-464 limits assumed): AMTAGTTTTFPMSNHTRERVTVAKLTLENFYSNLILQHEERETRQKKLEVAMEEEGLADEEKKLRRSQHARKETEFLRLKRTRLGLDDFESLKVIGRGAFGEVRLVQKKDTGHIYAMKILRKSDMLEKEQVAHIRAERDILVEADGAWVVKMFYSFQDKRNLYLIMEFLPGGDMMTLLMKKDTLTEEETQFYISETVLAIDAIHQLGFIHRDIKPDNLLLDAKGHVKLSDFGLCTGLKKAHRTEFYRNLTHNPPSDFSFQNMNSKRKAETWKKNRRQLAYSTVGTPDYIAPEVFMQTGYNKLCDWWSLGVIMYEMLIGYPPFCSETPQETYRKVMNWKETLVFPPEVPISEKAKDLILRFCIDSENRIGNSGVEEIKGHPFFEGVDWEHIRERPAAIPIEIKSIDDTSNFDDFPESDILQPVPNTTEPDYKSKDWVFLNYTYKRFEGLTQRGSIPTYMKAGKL

[21] = target: T7, Serine/threonine-protein kinase 38-like; test: Selectivity interaction (NanoBRET assay (HEK293T cells)) EUB0000712a STK38L

T5 sequence (P09619 whole entry): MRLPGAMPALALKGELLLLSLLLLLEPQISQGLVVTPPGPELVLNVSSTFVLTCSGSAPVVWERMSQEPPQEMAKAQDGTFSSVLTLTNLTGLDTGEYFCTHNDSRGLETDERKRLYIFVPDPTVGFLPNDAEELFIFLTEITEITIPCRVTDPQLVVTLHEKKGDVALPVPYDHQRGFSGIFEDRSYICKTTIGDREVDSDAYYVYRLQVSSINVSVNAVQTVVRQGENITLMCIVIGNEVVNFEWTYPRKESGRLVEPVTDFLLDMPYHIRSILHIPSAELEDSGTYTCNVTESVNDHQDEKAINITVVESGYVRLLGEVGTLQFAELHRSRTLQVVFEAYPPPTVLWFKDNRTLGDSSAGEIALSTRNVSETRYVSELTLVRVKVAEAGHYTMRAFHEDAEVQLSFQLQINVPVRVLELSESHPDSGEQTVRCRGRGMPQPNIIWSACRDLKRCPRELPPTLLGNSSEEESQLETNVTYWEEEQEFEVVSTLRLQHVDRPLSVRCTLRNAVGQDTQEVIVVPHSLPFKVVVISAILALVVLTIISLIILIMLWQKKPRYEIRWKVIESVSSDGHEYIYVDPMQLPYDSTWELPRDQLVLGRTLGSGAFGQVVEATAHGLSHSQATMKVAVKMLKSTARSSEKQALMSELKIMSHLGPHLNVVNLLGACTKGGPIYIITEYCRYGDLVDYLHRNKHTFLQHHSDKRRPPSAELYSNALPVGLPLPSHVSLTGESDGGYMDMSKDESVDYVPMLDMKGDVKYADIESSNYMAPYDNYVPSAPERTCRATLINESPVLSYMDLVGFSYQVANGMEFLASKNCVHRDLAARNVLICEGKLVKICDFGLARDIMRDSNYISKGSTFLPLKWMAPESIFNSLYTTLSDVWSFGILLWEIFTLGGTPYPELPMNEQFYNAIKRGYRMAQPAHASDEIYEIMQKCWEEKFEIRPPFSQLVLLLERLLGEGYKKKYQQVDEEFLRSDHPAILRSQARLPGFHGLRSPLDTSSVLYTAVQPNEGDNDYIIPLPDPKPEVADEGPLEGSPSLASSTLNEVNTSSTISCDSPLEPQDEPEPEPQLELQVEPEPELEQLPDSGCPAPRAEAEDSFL
T6 sequence (O96017 whole entry): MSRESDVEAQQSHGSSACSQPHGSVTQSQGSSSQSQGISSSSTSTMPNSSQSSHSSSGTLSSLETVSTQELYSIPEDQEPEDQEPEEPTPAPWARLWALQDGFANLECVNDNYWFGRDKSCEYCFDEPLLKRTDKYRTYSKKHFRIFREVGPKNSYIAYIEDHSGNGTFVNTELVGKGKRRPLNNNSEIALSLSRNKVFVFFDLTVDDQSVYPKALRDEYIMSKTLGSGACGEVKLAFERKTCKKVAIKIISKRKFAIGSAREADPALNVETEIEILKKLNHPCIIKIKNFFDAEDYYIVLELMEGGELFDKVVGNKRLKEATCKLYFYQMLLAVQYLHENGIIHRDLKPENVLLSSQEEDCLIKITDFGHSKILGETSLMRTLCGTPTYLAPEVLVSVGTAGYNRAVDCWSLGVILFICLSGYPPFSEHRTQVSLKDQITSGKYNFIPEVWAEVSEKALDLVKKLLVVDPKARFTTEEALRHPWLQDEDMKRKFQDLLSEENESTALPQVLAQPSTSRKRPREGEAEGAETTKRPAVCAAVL
T3 sequence (P10721 whole entry): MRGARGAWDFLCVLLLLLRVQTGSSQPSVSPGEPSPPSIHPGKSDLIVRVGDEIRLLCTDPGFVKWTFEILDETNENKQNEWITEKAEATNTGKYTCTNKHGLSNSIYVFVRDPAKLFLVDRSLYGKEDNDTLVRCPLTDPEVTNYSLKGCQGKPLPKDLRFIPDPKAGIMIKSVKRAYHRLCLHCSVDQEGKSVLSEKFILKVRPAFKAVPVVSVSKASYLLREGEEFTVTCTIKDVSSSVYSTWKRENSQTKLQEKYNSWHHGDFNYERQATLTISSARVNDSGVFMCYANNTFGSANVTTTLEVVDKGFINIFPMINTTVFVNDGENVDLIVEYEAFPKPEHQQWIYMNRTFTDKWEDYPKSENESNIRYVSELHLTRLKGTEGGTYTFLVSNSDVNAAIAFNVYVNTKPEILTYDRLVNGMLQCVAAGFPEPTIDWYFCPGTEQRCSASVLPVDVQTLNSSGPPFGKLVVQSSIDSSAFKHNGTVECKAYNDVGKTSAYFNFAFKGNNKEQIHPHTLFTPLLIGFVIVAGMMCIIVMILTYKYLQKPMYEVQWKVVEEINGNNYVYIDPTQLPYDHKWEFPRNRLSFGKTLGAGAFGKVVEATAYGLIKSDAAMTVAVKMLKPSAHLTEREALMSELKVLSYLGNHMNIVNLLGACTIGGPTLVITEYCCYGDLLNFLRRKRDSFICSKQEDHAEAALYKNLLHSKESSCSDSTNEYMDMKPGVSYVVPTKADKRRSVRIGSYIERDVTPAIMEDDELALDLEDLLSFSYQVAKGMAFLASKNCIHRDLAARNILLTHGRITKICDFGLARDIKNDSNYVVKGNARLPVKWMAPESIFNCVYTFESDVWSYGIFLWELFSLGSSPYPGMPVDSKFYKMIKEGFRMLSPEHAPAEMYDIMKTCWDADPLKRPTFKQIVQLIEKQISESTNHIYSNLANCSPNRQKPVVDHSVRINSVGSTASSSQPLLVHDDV
T4 sequence (P16234 whole entry): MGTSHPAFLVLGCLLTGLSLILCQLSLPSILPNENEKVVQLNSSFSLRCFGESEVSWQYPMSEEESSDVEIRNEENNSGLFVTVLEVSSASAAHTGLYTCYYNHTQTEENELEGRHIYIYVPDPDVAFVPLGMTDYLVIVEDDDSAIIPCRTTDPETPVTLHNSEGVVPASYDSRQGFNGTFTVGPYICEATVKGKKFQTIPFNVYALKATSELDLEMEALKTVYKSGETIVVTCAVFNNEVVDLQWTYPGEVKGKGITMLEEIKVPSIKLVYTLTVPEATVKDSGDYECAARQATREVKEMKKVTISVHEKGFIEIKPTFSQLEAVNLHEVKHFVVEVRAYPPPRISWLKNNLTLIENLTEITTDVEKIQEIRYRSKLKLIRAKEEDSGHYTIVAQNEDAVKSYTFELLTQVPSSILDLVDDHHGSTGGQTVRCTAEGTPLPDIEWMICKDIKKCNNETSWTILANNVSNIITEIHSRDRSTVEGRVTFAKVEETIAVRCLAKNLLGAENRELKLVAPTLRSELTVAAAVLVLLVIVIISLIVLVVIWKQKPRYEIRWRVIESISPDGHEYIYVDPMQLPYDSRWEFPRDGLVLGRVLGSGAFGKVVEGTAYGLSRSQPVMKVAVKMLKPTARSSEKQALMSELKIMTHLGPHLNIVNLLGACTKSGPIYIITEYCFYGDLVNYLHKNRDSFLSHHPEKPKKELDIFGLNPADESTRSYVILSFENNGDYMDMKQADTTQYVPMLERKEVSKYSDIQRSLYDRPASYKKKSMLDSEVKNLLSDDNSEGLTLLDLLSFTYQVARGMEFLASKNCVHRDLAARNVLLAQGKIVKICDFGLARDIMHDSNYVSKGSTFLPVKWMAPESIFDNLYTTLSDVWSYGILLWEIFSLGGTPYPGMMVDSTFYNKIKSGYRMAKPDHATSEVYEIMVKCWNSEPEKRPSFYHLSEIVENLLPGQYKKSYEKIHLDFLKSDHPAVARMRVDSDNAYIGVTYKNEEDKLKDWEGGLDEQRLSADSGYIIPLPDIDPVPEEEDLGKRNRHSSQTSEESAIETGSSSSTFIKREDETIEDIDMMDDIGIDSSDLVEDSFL
Receptor-interacting serine/threonine-protein kinase 2 (Homo sapiens), sequence (O43353 whole entry, canonical isoform): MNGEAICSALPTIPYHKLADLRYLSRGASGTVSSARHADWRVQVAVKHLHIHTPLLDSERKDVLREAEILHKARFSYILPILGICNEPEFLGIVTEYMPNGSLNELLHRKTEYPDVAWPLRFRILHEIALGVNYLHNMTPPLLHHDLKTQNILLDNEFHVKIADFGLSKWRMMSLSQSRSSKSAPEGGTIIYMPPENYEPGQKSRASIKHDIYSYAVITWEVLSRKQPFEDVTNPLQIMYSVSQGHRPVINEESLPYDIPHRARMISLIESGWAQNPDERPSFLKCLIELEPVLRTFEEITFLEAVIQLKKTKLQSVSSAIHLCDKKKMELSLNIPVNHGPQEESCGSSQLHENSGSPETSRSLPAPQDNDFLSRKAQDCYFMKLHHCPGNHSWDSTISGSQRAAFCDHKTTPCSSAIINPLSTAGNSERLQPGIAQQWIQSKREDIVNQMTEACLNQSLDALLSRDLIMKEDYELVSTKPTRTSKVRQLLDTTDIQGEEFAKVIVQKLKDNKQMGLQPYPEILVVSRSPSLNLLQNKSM

- % of control [1]: 4.4%
- % of control [2]: 0.3%
- % of control [3]: 19%
- IC50 [4]: > 10 µM
- % of control [5]: 4.9%
- IC50 [6]: > 10 µM
- IC50 [7]: 2.44 µM
- IC50 [8]: 138 µM
- % of control [9]: 14%
- IC50 [10]: 2.44 µM
- % of control [11]: 29%
- IC50 [12]: 2.52 µM
- IC50 [13]: 3 µM
- % of control [14]: 24%
Compound: CN1CCN(C(=O)C(C)(C)c2ccc(C(=O)Nc3cn4cc(-c5ccncc5)ccc4n3)cc2)CC1 [T3-CLK]

- % of inhibition (Mu-type opioid receptor): 45.3%
- % of control [15]: 37%
- IC50 [16]: > 25 µM
- IC50 [17]: > 25 µM
- % of control [18]: 30%
- % of control [19]: 37%
- % of control [20]: 40%
- IC50 [21]: > 25 µM
Compound: CS(=O)(=O)N1CCCC(NC(=O)[C@H](CCC2CCCCC2)NC(=O)c2ccc(CNC(=O)c3cnc4ccccn34)cc2)C1 (some centres not stated) [SR-302]
